Reference: patent publication US20150098983A1, “Methods and Compositions for Treating Withdrawal Syndromes Using Non-Sedative Dexmedetomidine Transdermal Compositions” (Teikoku Pharma USA, Inc., priority 2013, published 2015)
Where two headings read alike, the source gives them in different places.

Cc1cccc([C@H](C)c2cnc[nH]2)c1C [Dexmedetomidine]
solubility of dexmedetomidine (in Duro-Tak 87-2979): less than 2%
solubility of dexmedetomidine (in Duro-Tak 387/87-2353 (acid functionalized acrylate adhesive)): 10-15%
solubility of dexmedetomidine (in hydroxyl functionalized acrylate polymer): less than 1%
solubility of dexmedetomidine (in lauryl lactate): 5 to 10%
solubility of dexmedetomidine (in levulinic acid): ~60%
solubility of dexmedetomidine (in oleic acid): ~40%
solubility of dexmedetomidine (in propylene glycolmonolaurate): 5 to 10%
